This note sets out measurements from patent US11236069B2, “KIF18A inhibitors” (AMGEN INC., priority 2018, dated 2022).

Recombinant human KIF18A (1-467 His-tagged) protein, sequence (Q8NI77 1-467): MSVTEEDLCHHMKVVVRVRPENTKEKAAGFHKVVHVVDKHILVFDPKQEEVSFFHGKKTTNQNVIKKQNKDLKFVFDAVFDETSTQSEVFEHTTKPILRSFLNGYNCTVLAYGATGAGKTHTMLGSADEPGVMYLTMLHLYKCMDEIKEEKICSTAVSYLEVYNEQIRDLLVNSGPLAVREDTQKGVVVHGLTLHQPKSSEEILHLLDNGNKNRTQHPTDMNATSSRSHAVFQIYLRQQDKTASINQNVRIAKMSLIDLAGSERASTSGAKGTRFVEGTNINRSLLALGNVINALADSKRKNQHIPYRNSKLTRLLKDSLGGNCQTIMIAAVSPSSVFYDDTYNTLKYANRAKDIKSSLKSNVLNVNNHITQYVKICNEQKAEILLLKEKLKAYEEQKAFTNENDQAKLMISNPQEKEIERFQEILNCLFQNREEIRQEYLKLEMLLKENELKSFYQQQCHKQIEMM
Recombinant human KIF18A (1-467 His-tagged) protein, sequence (P02550 whole entry partner): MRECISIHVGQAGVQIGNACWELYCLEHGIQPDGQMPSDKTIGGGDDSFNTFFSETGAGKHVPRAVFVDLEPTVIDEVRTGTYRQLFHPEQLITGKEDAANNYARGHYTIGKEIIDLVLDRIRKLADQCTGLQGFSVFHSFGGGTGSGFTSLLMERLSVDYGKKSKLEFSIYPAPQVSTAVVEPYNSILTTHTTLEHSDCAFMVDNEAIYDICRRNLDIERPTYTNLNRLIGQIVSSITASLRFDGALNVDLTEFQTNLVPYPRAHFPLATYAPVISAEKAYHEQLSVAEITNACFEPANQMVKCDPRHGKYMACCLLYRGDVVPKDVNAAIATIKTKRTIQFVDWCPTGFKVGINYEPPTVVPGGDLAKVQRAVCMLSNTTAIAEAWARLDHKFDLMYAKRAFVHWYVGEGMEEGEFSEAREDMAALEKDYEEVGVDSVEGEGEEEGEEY
Recombinant human KIF18A (1-467 His-tagged) protein, sequence (P02554 whole entry partner): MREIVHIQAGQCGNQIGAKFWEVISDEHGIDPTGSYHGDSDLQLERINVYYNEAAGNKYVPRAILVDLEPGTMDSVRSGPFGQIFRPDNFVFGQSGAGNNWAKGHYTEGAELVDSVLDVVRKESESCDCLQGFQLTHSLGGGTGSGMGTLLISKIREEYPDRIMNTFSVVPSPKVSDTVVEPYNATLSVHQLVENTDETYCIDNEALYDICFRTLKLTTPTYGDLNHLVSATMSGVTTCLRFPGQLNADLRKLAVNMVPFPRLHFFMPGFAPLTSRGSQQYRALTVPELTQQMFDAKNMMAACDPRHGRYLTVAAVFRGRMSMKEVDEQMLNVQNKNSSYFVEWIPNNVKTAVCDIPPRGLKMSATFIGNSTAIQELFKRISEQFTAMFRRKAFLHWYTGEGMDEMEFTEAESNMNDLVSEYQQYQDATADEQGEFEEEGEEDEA

The assay has as its target Recombinant human KIF18A (1-467 His-tagged) protein (Homo sapiens (Human), UniProt Q8NI77). Nature of the assay: KIF18A Enzyme Assay: microtubule-stimulated ATPase activity (ADP-Glo). To be noted: read-out: KIF18A ATPase IC50; 30 nM KIF18A, 30 μg/mL pig microtubules, ATP at Km 75 μM, ADP-Glo luminescence.
From the text: KIF18A Enzyme Assay: Microtubule-stimulated ATPase activity assay is used to measure KIF18A enzyme activity after treatment with compound. Compounds were 2-fold serially diluted in DMSO (Sigma Inc) over 22-point concentration range. […] The assay measures ADP formed from the ATPase reaction.
In the case of `Cc1cc(NC(=O)c2ccc(NS(=O)(=O)CCO)cc2N2CCC3(CC2)CC3)nc(N2CCC3C[C@]3(O)C2)n1` (stereo partly drawn) [Example 11-42, N-(2-((1R)-1-Hydroxy-3-azabicyclo[4.1.0]heptan-3-yl)-6-methylpyrimidin-4-yl)-4-((2-hydroxyethyl)sulfonamido)-2-(6-azaspiro[2.5]octan-6-yl)benzamide], the IC50 (usually the midpoint of a concentration-inhibition curve) amounted to 34 nM.

As to `Cc1cc(NC(=O)c2ccc(NS(=O)(=O)C3CC3)cc2N2CCC3(CC2)CC3)nc(N2CC(F)(F)C2)n1` [Example 11-22, 4-(Cyclopropanesulfonamido)-N-(2-(3,3-difluoroazetidin-1-yl)-6-methylpyrimidin-4-yl)-2-(6-azaspiro[2.5]octan-6-yl)benzamide], the IC50 was determined as 788 nM.

For `Cc1cc(NC(=O)c2ccc(NS(=O)(=O)C[C@@H](C)O)cc2N2CCC3(CC2)CC3)nc(OCCC(F)(F)F)n1` [Example 6-28-1, (R)-4-((2-Hydroxypropyl)sulfonamido)-N-(6-methyl-2-(3,3,3-trifluoropropoxy)pyrimidin-4-yl)-2-(6-azaspiro[2.5]octan-6-yl)benzamide], the IC50 is 68 nM.

Regarding `C[C@H](O)CS(=O)(=O)Nc1ccc(C(=O)Nc2ccnc(N3CCO[C@H](C)C3)n2)c(N2CCC3(CC2)CC3)c1` [Example 6-33-1, 4-(((S)-2-Hydroxypropyl)sulfonamido)-N-(2-((R)-2-methylmorpholino)pyrimidin-4-yl)-2-(6-azaspiro[2.5]octan-6-yl)benzamide], the IC50 is 115 nM.

On to `Cc1cc(NC(=O)c2ccc(S(=O)(=O)[C@@H]3CCC[C@H]3O)cc2N2CCC3(CC2)CC3)nc(N2CCC(F)(F)CC2)n1` [Example 14-9, N-(2-(4,4-Difluoropiperidin-1-yl)-6-methylpyrimidin-4-yl)-4-(((1R,2R)-2-hydroxycyclopentyl)sulfonyl)-2-(6-azaspiro[2.5]octan-6-yl)benzamide], for which the IC50 was found to be 195 nM.

As for `Cc1cc(NC(=O)c2ccc(NS(=O)(=O)[C@@H](C)CO)cc2N2CCC3(CC2)CC3)nc(N2CCC(F)CC2)n1` [Example 6-25-1, (S)-N-(2-(4-fluoropiperidin-1-yl)-6-methylpyrimidin-4-yl)-4-((2-hydroxy-1-methylethyl)sulfonamido)-2-(6-azaspiro[2.5]octan-6-yl)benzamide], the IC50 is 47 nM.

Regarding `O=C(Nc1ccnc(N2CC(F)C2)n1)c1ccc(NS(=O)(=O)CCO)cc1N1CCC2(CC1)CC2` [Example 11-6, N-(2-(3-Fluoroazetidin-1-yl)pyrimidin-4-yl)-4-((2-hydroxyethyl)sulfonamido)-2-(6-azaspiro[2.5]octan-6-yl)benzamide], the IC50 stood at 68 nM.

Turning to `COc1cc(C(=O)Nc2cc(C)nc(N3CCC(F)(F)CC3)n2)c(N2CCC3(CC2)CC3)cc1NS(=O)(=O)CCO` [Example 6-36, N-(2-(4,4-Difluoropiperidin-1-yl)-6-methylpyrimidin-4-yl)-4-((2-hydroxyethyl)sulfonamido)-5-methoxy-2-(6-azaspiro[2.5]octan-6-yl)benzamide], the IC50 came out at 114 nM.

For `Cc1cc(NC(=O)c2ccc(NS(=O)(=O)CF)cc2N2CCC3(CC2)CC3)nc(N2CCO[C@H](C)C2)n1` [Example 6-3, (R)-4-((Fluoromethyl)sulfonamido)-N-(6-methyl-2-(2-methylmorpholino)pyrimidin-4-yl)-2-(6-azaspiro[2.5]octan-6-yl)benzamide], the IC50 was 79 nM.

In the case of `CC[S@](=N)(=O)c1ccc(C(=O)Nc2cc(C)nc(N3CCC(F)(F)CC3)n2)c(N2CCC3(CC2)CC3)c1` (single isomer, unassigned) [Example 19-4, 2-(6-Azaspiro[2.5]octan-6-yl)-N-(2-(4,4-difluoro-1-pieridinyl)-6-methyl-4-pyrimidinyl)-4-(R-ethylsulfonimidoyl)benzamide], the half-inhibitory concentration (IC50) worked out at 35 nM.

For the compound `Cc1cc(NC(=O)c2ccc(NS(=O)(=O)CCO)cc2N2CCC3(CC2)CC3)nc(N2CCC[C@H](O)C2)n1` [Example 11-53, (S)-4-((2-Hydroxyethyl)sulfonamido)-N-(2-(3-hydroxypiperidin-1-yl)-6-methylpyrimidin-4-yl)-2-(6-azaspiro[2.5]octan-6-yl)benzamide], the IC50 was determined as 105 nM.
